# Results as given in PubChem BioAssay AID248 (DTP/NCI, 2004).
# “And” between values parts separate entries of the source, which are not always exact repeats. Identical values can stand only once. Inconclusive results and toxic doses are left out.
# Tested on: L1210 leukemia ip in BDF1 mice, survival T/C
# Assay: NCI In Vivo Anticancer Drug Screen. Data for tumor model L1210 Leukemia (intraperitoneal) in B6D2F1 (BDF1) mice
# Settings: endpoint: mean survival time, higher = longer survival
# How it was run: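 Antitumor effect is assessed in tumor-bearing animals. Survival in the compound arm is compared with a vehicle-dosed control arm and expressed as their quotient.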
# [1] = dose: 50.0 mg/kg/injection, schedule: Q01DX001 (ip), vehicle: saline
# [2] = dose: 100.0 mg/kg/injection, schedule: Q01DX001 (ip), vehicle: saline
# [3] = dose: 200.0 mg/kg/injection, schedule: Q01DX001 (ip), vehicle: saline
# [4] = dose: 100.0 mg/kg/injection, schedule: Q04DX003 (ip), vehicle: Klucel (hydroxypropylcellulose) (HPC)
# [5] = dose: 200.0 mg/kg/injection, schedule: Q04DX003 (ip), vehicle: Klucel (hydroxypropylcellulose) (HPC)
# [6] = dose: 400.0 mg/kg/injection, schedule: Q04DX003 (ip), vehicle: Klucel (hydroxypropylcellulose) (HPC)
# [7] = dose: 100.0 mg/kg/injection, schedule: Q01DX001 (ip), vehicle: carboxymethylcellulose (CMC)
# [8] = dose: 200.0 mg/kg/injection, schedule: Q01DX001 (ip), vehicle: carboxymethylcellulose (CMC)
# [9] = dose: 400.0 mg/kg/injection, schedule: Q01DX001 (ip), vehicle: carboxymethylcellulose (CMC)
# [10] = dose: 100.0 mg/kg/injection, schedule: Q01DX009 (ip), vehicle: Klucel (hydroxypropylcellulose) (HPC)
# [11] = dose: 200.0 mg/kg/injection, schedule: Q01DX009 (ip), vehicle: Klucel (hydroxypropylcellulose) (HPC)
# [12] = dose: 10.0 mg/kg/injection, schedule: Q01DX001 (ip), vehicle: saline
structure (smiles),measurement,setting,value
CC1(CNC(=O)C(=O)NCC2(C)CO2)CO1 (stereo unspecified),T/C,"dose: 15.0 mg/kg/injection, schedule: Q01DX009 (ip), vehicle: acetone",98 % of control
same,T/C,"dose: 23.0 mg/kg/injection, schedule: Q01DX009 (ip), vehicle: acetone",98 % of control
same,T/C,"dose: 25.0 mg/kg/injection, schedule: Q01DX Z (ip), vehicle: saline",121 % of control
same,T/C,"dose: 40.0 mg/kg/injection, schedule: Q01DX Z (ip), vehicle: other",120 % of control
same,T/C,[1],101 % of control
same,T/C,"dose: 50.0 mg/kg/injection, schedule: Q01DX009 (ip), vehicle: saline",124 % of control
same,T/C,"dose: 50.0 mg/kg/injection, schedule: Q01DX Z (ip), vehicle: saline",116 % of control
same,T/C,"dose: 50.0 mg/kg/injection, schedule: Q04DX003 (ip), vehicle: saline",124 % of control
same,T/C,"dose: 100.0 mg/kg/injection, schedule: Q01DX001 (ip), vehicle: acetone",123 % of control
same,T/C,[2],110 % of control and 113 % of control
same,T/C,"dose: 100.0 mg/kg/injection, schedule: Q01DX009 (ip), vehicle: saline",150 % of control
same,T/C,"dose: 100.0 mg/kg/injection, schedule: Q01DX Z (ip), vehicle: other",96 % of control
same,T/C,"dose: 132.0 mg/kg/injection, schedule: Q04DX003 (ip), vehicle: saline",117 % of control
same,T/C,"dose: 150.0 mg/kg/injection, schedule: Q01DX009 (ip), vehicle: saline",157 % of control and 163 % of control
same,T/C,"dose: 150.0 mg/kg/injection, schedule: Q01DX Z (ip), vehicle: carboxymethylcellulose (CMC)",121 % of control
same,T/C,"dose: 200.0 mg/kg/injection, schedule: Q01DX001 (ip), vehicle: acetone",119 % of control
same,T/C,[3],120 % of control
same,T/C,"dose: 200.0 mg/kg/injection, schedule: Q04DX003 (ip), vehicle: saline",157 % of control and 166 % of control
same,T/C,"dose: 225.0 mg/kg/injection, schedule: Q01DX009 (ip), vehicle: saline",180 % of control
same,T/C,"dose: 225.0 mg/kg/injection, schedule: Q01DX Z (ip), vehicle: carboxymethylcellulose (CMC)",96 % of control
same,T/C,"dose: 300.0 mg/kg/injection, schedule: Q01DX009 (ip), vehicle: saline",94 % of control
same,T/C,"dose: 300.0 mg/kg/injection, schedule: Q04DX003 (ip), vehicle: saline",158 % of control and 189 % of control
same,T/C,"dose: 338.0 mg/kg/injection, schedule: Q01DX Z (ip), vehicle: other",106 % of control
same,T/C,"dose: 400.0 mg/kg/injection, schedule: Q01DX001 (ip), vehicle: acetone",204 % of control
COC(=O)C12N=NN(c3ccccc3)C1(C(=O)OC)C1CCC2C1 (stereo unspecified),T/C,"dose: 100.0 mg/kg/injection, schedule: Q01DX009 (ip), vehicle: saline with Tween-80",106 % of control
same,T/C,[4],96 % of control
same,T/C,"dose: 200.0 mg/kg/injection, schedule: Q01DX009 (ip), vehicle: saline with Tween-80",94 % of control
same,T/C,[5],102 % of control
same,T/C,"dose: 400.0 mg/kg/injection, schedule: Q01DX009 (ip), vehicle: saline with Tween-80",98 % of control
same,T/C,[6],97 % of control
CCCCCCCNC,T/C,"dose: 50.0 mg/kg/injection, schedule: Q01DX001 (ip), vehicle: carboxymethylcellulose (CMC)",99 % of control
same,T/C,[7],99 % of control
same,T/C,[8],96 % of control
N#CCCc1ccc(O)cc1,T/C,"dose: 50.0 mg/kg/injection, schedule: Q01DX009 (ip), vehicle: gum acacia",100 % of control
same,T/C,"dose: 100.0 mg/kg/injection, schedule: Q01DX009 (ip), vehicle: gum acacia",107 % of control
same,T/C,"dose: 100.0 mg/kg/injection, schedule: Q04DX003 (ip), vehicle: gum acacia",97 % of control
same,T/C,"dose: 200.0 mg/kg/injection, schedule: Q01DX009 (ip), vehicle: gum acacia",93 % of control
same,T/C,"dose: 200.0 mg/kg/injection, schedule: Q04DX003 (ip), vehicle: gum acacia",97 % of control
Cn1[nH]c(NC=O)c2cc3c(=O)[nH]c(=O)cc3nc21,T/C,"dose: 100.0 mg/kg/injection, schedule: Q01DX001 (ip), vehicle: Klucel (hydroxypropylcellulose) (HPC)",93 % of control
same,T/C,"dose: 200.0 mg/kg/injection, schedule: Q01DX001 (ip), vehicle: Klucel (hydroxypropylcellulose) (HPC)",90 % of control
CC(=O)CCc1ccccc1,T/C,[7],101 % of control
same,T/C,[8],103 % of control
same,T/C,[9],101 % of control
CCCC1C2C(=O)N(c3ccccc3)C(=O)C2ON1c1ccccc1 (stereo unspecified),T/C,[1],104 % of control
same,T/C,[2],98 % of control
same,T/C,[3],101 % of control
same,T/C,"dose: 400.0 mg/kg/injection, schedule: Q01DX001 (ip), vehicle: saline",106 % of control
O=C(Nc1ccc(Cl)c(Cl)c1)Oc1ccc(C2CCCCC2)cc1,T/C,[10],95 % of control
same,T/C,[4],111 % of control
same,T/C,[11],95 % of control
same,T/C,[5],109 % of control
same,T/C,"dose: 400.0 mg/kg/injection, schedule: Q01DX009 (ip), vehicle: Klucel (hydroxypropylcellulose) (HPC)",97 % of control
same,T/C,[6],101 % of control
CC(CNC(=O)CCOS(C)(=O)=O)CNC(=O)CCOS(C)(=O)=O,T/C,[7],115 % of control
same,T/C,"dose: 100.0 mg/kg/injection, schedule: Q04DX003 (ip), vehicle: other",105 % of control
same,T/C,"dose: 132.0 mg/kg/injection, schedule: Q01DX009 (ip), vehicle: other",113 % of control
same,T/C,[8],107 % of control
same,T/C,"dose: 200.0 mg/kg/injection, schedule: Q01DX009 (ip), vehicle: other",122 % of control
same,T/C,"dose: 200.0 mg/kg/injection, schedule: Q04DX003 (ip), vehicle: other",121 % of control
same,T/C,"dose: 264.0 mg/kg/injection, schedule: Q04DX003 (ip), vehicle: saline",114 % of control
same,T/C,[9],120 % of control
C[N+]1(CCCNC(=O)Nc2ccc(Cl)cc2)CCOCC1,T/C,"dose: 12.5 mg/kg/injection, schedule: Q04DX002 (ip), vehicle: saline",105 % of control
same,T/C,"dose: 25.0 mg/kg/injection, schedule: Q04DX002 (ip), vehicle: saline",102 % of control
same,T/C,"dose: 50.0 mg/kg/injection, schedule: Q04DX002 (ip), vehicle: saline",97 % of control
C1CCC(N2CN(C3CCCCC3)CN(C3CCCCC3)C2)CC1,T/C,"dose: 100.0 mg/kg/injection, schedule: Q04DX002 (ip), vehicle: Klucel (hydroxypropylcellulose) (HPC)",97 % of control
same,T/C,"dose: 200.0 mg/kg/injection, schedule: Q04DX002 (ip), vehicle: Klucel (hydroxypropylcellulose) (HPC)",106 % of control
same,T/C,"dose: 400.0 mg/kg/injection, schedule: Q04DX002 (ip), vehicle: Klucel (hydroxypropylcellulose) (HPC)",115 % of control
N#C/C(=C\C1CC(Br)CCC1O)C1CCC([N+](=O)[O-])CC1 (stereo unspecified),T/C,"dose: 100.0 mg/kg/injection, schedule: Q04DX002 (ip), vehicle: saline with Tween-80",97 % of control
same,T/C,"dose: 200.0 mg/kg/injection, schedule: Q04DX002 (ip), vehicle: saline with Tween-80",86 % of control
O=C(NC(c1ccccc1)C(Cl)(Cl)Cl)c1ccccc1 (stereo unspecified),T/C,"dose: 50.0 mg/kg/injection, schedule: Q01DX009 (ip), vehicle: Klucel (hydroxypropylcellulose) (HPC)",97 % of control
same,T/C,[10],97 % of control
same,T/C,[11],97 % of control
CCc1nc(C#N)c(N)o1,T/C,"dose: 5.0 mg/kg/injection, schedule: Q01DX001 (ip), vehicle: saline",98 % of control
same,T/C,[12],103 % of control
same,T/C,"dose: 20.0 mg/kg/injection, schedule: Q01DX001 (ip), vehicle: saline",97 % of control
same,T/C,"dose: 40.0 mg/kg/injection, schedule: Q01DX001 (ip), vehicle: saline",95 % of control
same,T/C,"dose: 80.0 mg/kg/injection, schedule: Q01DX001 (ip), vehicle: saline",98 % of control
CCC(/C=N/N=C(N)N)OC (stereo unspecified),T/C,"dose: 2.0 mg/kg/injection, schedule: Q01DX Z (oral), vehicle: saline",103 % of control
same,T/C,"dose: 4.0 mg/kg/injection, schedule: Q01DX Z (oral), vehicle: saline",101 % of control
same,T/C,"dose: 8.0 mg/kg/injection, schedule: Q01DX Z (oral), vehicle: saline",106 % of control
same,T/C,"dose: 16.0 mg/kg/injection, schedule: Q01DX Z (oral), vehicle: saline",100 % of control
same,T/C,"dose: 32.0 mg/kg/injection, schedule: Q01DX Z (oral), vehicle: saline",110 % of control
same,T/C,"dose: 64.0 mg/kg/injection, schedule: Q01DX Z (oral), vehicle: saline",100 % of control
same,T/C,"dose: 128.0 mg/kg/injection, schedule: Q01DX Z (oral), vehicle: saline",104 % of control and 113 % of control
same,T/C,"dose: 256.0 mg/kg/injection, schedule: Q01DX Z (oral), vehicle: saline",98 % of control and 115 % of control
CC(=O)Nc1nnc(Sc2n[nH]c(=O)[nH]c2=O)s1,T/C,[12],98 % of control
